# Source: ChEMBL document CHEMBL1137480, “Synthesis and structure-activity relationship of 7-(substituted)-aminomethyl-4-quinolone-3-carboxylic acid derivatives” (2007)
# Test system: Streptococcus pneumoniae
# Experiment: Antibacterial activity against Streptococcus pneumoniae 31002 after 24 hrs by agar dilution method
# Format: functional
row,Structure (SMILES),MIC [µg/mL]
1,C[C@H]1COc2c(CN(C)c3ccc(F)cc3)c(F)cc3c(=O)c(C(=O)O)cn1c23,0.39
2,CNCc1c(F)cc2c(=O)c(C(=O)O)cn3c2c1OCC3C (centres undefined),3.13
3,CC1COc2c(CNC3CC3)c(F)cc3c(=O)c(C(=O)O)cn1c23 (centres undefined),0.39
4,CC1COc2c(CN3CCCC3)c(F)cc3c(=O)c(C(=O)O)cn1c23 (centres undefined),3.13
5,CC1COc2c(CN3CCCCC3)c(F)cc3c(=O)c(C(=O)O)cn1c23 (centres undefined),3.13
6,CC1COc2c(Cn3ccnc3)c(F)cc3c(=O)c(C(=O)O)cn1c23 (centres undefined),0.78

# Now those with a lower MIC, led by results:
row,MIC [µg/mL],Structure (SMILES)
1,0.195,Cc1ccc(NCc2c(F)cc3c(=O)c(C(=O)O)cn4c3c2OC[C@@H]4C)cc1C
2,0.195,Cc1cc(C)nc(NCc2c(F)cc3c(=O)c(C(=O)O)cn4c3c2OC[C@@H]4C)c1
3,≤ 0.049,CC1COc2c(CNc3ccc(Cl)cc3)c(F)cc3c(=O)c(C(=O)O)cn1c23 (centres undefined)

# Test system: Shigella boydii
# Experiment: Antibacterial activity against Shigella boydii 51313 after 24 hrs by agar dilution method
# Format: functional
row,Structure (SMILES),MIC [µg/mL]
1,C[C@H]1COc2c(CN(C)c3ccc(F)cc3)c(F)cc3c(=O)c(C(=O)O)cn1c23,1.56
2,CNCc1c(F)cc2c(=O)c(C(=O)O)cn3c2c1OCC3C (centres undefined),0.098
3,CC1COc2c(CNC3CC3)c(F)cc3c(=O)c(C(=O)O)cn1c23 (centres undefined),≤ 0.049
4,CC1COc2c(CN3CCCC3)c(F)cc3c(=O)c(C(=O)O)cn1c23 (centres undefined),0.39
5,CC1COc2c(CN3CCCCC3)c(F)cc3c(=O)c(C(=O)O)cn1c23 (centres undefined),0.098
6,CC1COc2c(Cn3ccnc3)c(F)cc3c(=O)c(C(=O)O)cn1c23 (centres undefined),0.78

# More lines, now with the values ahead:
row,MIC [µg/mL],Structure (SMILES)
1,1.56,Cc1ccc(NCc2c(F)cc3c(=O)c(C(=O)O)cn4c3c2OC[C@@H]4C)cc1C
2,0.195,Cc1cc(C)nc(NCc2c(F)cc3c(=O)c(C(=O)O)cn4c3c2OC[C@@H]4C)c1
3,1.56,CC1COc2c(CNc3ccc(Cl)cc3)c(F)cc3c(=O)c(C(=O)O)cn1c23 (centres undefined)

# Test system: Staphylococcus epidermidis
# Experiment: Antibacterial activity against Staphylococcus epidermidis 26069 after 24 hrs by agar dilution method
# Format: functional
row,Structure (SMILES),MIC [µg/mL]
1,C[C@H]1COc2c(CN(C)c3ccc(F)cc3)c(F)cc3c(=O)c(C(=O)O)cn1c23,3.13
2,CNCc1c(F)cc2c(=O)c(C(=O)O)cn3c2c1OCC3C (centres undefined),> 6.25
3,CC1COc2c(CNC3CC3)c(F)cc3c(=O)c(C(=O)O)cn1c23 (centres undefined),3.13
4,CC1COc2c(CN3CCCC3)c(F)cc3c(=O)c(C(=O)O)cn1c23 (centres undefined),> 6.25
5,CC1COc2c(CN3CCCCC3)c(F)cc3c(=O)c(C(=O)O)cn1c23 (centres undefined),> 6.25
6,CC1COc2c(Cn3ccnc3)c(F)cc3c(=O)c(C(=O)O)cn1c23 (centres undefined),3.13

# Second part, the molecule after the results:
row,MIC [µg/mL],Structure (SMILES)
1,3.13,Cc1ccc(NCc2c(F)cc3c(=O)c(C(=O)O)cn4c3c2OC[C@@H]4C)cc1C
2,0.78,Cc1cc(C)nc(NCc2c(F)cc3c(=O)c(C(=O)O)cn4c3c2OC[C@@H]4C)c1
3,0.78,CC1COc2c(CNc3ccc(Cl)cc3)c(F)cc3c(=O)c(C(=O)O)cn1c23 (centres undefined)

# Test system: Salmonella
# Experiment: Antibacterial activity against […] 48107 after 24 hrs by agar dilution method
# Format: functional
row,Structure (SMILES),MIC [µg/mL]
1,C[C@H]1COc2c(CN(C)c3ccc(F)cc3)c(F)cc3c(=O)c(C(=O)O)cn1c23,1.56
2,CNCc1c(F)cc2c(=O)c(C(=O)O)cn3c2c1OCC3C (centres undefined),≤ 0.049
3,CC1COc2c(CNC3CC3)c(F)cc3c(=O)c(C(=O)O)cn1c23 (centres undefined),≤ 0.049
4,CC1COc2c(CN3CCCC3)c(F)cc3c(=O)c(C(=O)O)cn1c23 (centres undefined),0.39
5,CC1COc2c(CN3CCCCC3)c(F)cc3c(=O)c(C(=O)O)cn1c23 (centres undefined),0.78
6,CC1COc2c(Cn3ccnc3)c(F)cc3c(=O)c(C(=O)O)cn1c23 (centres undefined),0.39

# The remaining lines, values ahead:
row,MIC [µg/mL],Structure (SMILES)
1,3.13,Cc1ccc(NCc2c(F)cc3c(=O)c(C(=O)O)cn4c3c2OC[C@@H]4C)cc1C
2,0.78,Cc1cc(C)nc(NCc2c(F)cc3c(=O)c(C(=O)O)cn4c3c2OC[C@@H]4C)c1
3,1.56,CC1COc2c(CNc3ccc(Cl)cc3)c(F)cc3c(=O)c(C(=O)O)cn1c23 (centres undefined)

# Test system: Klebsiella pneumoniae
# Experiment: Antibacterial activity against Klebsiella pneumoniae 46101 after 24 hrs by agar dilution method
# Format: functional
row,Structure (SMILES),MIC [µg/mL]
1,C[C@H]1COc2c(CN(C)c3ccc(F)cc3)c(F)cc3c(=O)c(C(=O)O)cn1c23,1.56
2,CNCc1c(F)cc2c(=O)c(C(=O)O)cn3c2c1OCC3C (centres undefined),0.098
3,CC1COc2c(CNC3CC3)c(F)cc3c(=O)c(C(=O)O)cn1c23 (centres undefined),≤ 0.049
4,CC1COc2c(CN3CCCC3)c(F)cc3c(=O)c(C(=O)O)cn1c23 (centres undefined),0.195
5,CC1COc2c(CN3CCCCC3)c(F)cc3c(=O)c(C(=O)O)cn1c23 (centres undefined),0.39
6,CC1COc2c(Cn3ccnc3)c(F)cc3c(=O)c(C(=O)O)cn1c23 (centres undefined),0.195

# Further lines, results first:
row,MIC [µg/mL],Structure (SMILES)
1,6.25,Cc1ccc(NCc2c(F)cc3c(=O)c(C(=O)O)cn4c3c2OC[C@@H]4C)cc1C
2,0.39,Cc1cc(C)nc(NCc2c(F)cc3c(=O)c(C(=O)O)cn4c3c2OC[C@@H]4C)c1
3,> 6.25,CC1COc2c(CNc3ccc(Cl)cc3)c(F)cc3c(=O)c(C(=O)O)cn1c23 (centres undefined)

# Test system: Staphylococcus aureus
# Experiment: Antibacterial activity against Staphylococcus aureus 26003 after 24 hrs by agar dilution method
# Format: functional
row,Structure (SMILES),MIC [µg/mL]
1,C[C@H]1COc2c(CN(C)c3ccc(F)cc3)c(F)cc3c(=O)c(C(=O)O)cn1c23,3.13
2,CNCc1c(F)cc2c(=O)c(C(=O)O)cn3c2c1OCC3C (centres undefined),3.13
3,CC1COc2c(CNC3CC3)c(F)cc3c(=O)c(C(=O)O)cn1c23 (centres undefined),3.13
4,CC1COc2c(CN3CCCC3)c(F)cc3c(=O)c(C(=O)O)cn1c23 (centres undefined),> 6.25
5,CC1COc2c(CN3CCCCC3)c(F)cc3c(=O)c(C(=O)O)cn1c23 (centres undefined),> 6.25
6,CC1COc2c(Cn3ccnc3)c(F)cc3c(=O)c(C(=O)O)cn1c23 (centres undefined),3.13

# Other lines, results leading:
row,MIC [µg/mL],Structure (SMILES)
1,3.13,Cc1ccc(NCc2c(F)cc3c(=O)c(C(=O)O)cn4c3c2OC[C@@H]4C)cc1C
2,0.78,Cc1cc(C)nc(NCc2c(F)cc3c(=O)c(C(=O)O)cn4c3c2OC[C@@H]4C)c1
3,0.195,CC1COc2c(CNc3ccc(Cl)cc3)c(F)cc3c(=O)c(C(=O)O)cn1c23 (centres undefined)
